From patent publication US10869873B2 (priority 2011, dated 2020)

How the values were obtained:
[1] = tested on: HeLa-derived TZM-b1 cells; assay: Viability of HIV-1 infected TZM-b1 cells; type: cell-based, human; settings: HIV-1 infected TZM-b1 cells treated daily for 4 days
Text: To test the hypothesis that AAK1 and GAK are important for HIV infection, HeLa-derived TZM-b1 cells were used, which express CD4, CCR5 and CXCR4, as well as β-galactosidase and firefly luciferase reporter genes responsive to HIV transcription (Wei et al., Antimicrobial agents and chemotherapy 46:1896-1905, 2002). Cells were transfected with siRNAs targeting AAK1, GAK or a NT sequence followed by infection with the infectious HIV-1 NL4-3 clone (Adachi et al., J Virol 59:284-291, 1986), as described (Zhou et al., Cell Host & Microbe 4:495-504, 2008). Luciferase activity was measured at 96 hr postinfection.
Following 24, 48, and 72 hrs of treatment with inhibitory compounds or silencing with siRNAs, cells were incubated for 2-4 hrs at 37° C. in the presence of 10% AlamarBlue reagent (TREK Diagnostic Systems), as described (Einav et al., Nature Biotechnology 26, 1019-1027, 2008). Plates were then scanned and fluorescence was detected by using FLEXstation II 384 (Molecular Devices, Inc.).

HIV-1 NL4-3 = assay: HIV replication assay in TZM-b1 cells, luciferase; type: cell-based; settings: for antiviral effect on HIV replication: HIV-1 infected TZM-b1 cells treated daily with serial dilutions for 4 days; for EC50: Human immunodeficiency virus 1, NL43, TZM-b1, 96 h, read-out: EC50, HIV replication
core-AP2M1 binding = assay: Core-AP2M1 co-immunoprecipitation in membranes of HCV infected Huh-7.5 cells; type: cell-based, HCV core / human AP2M1; settings: membranes of Huh-7.5 cells infected with J6/JFH, 100 nM calyculin-A
Description: To determine whether core binds AP2M1 in the context of authentic HCV infection, co-immunoprecipitation assays in membrane fractions prepared from Huh-7.5 cells infected with cell culture-grown HCV (J6/JFH) were performed (Lindenbach et al., Science 309:623-626, 2005). AP2M1 could bring down core when anti-AP2M1 antibodies but not IgG controls were added to the membrane lysates. […] (FIG. 2D). […] Colocalization of core with AP2M1 in Huh-7.5 cells 72 hr following electroporation with J6/JFH HCV RNA was also investigated.
Membranes were prepared from ˜20×10^6 Huh-7.5 cells infected with HCV (J6/JFH) (Lindenbach, et al., Science 309, 623-626, 2005), as previously described (Einav et al., J Virol 78, 11288-11295, 2004). Briefly, cells were collected by trypsinization, washed once with PBS and resuspended in HME buffer (20 mM HEPES [pH 7.4], 1 mM EDTA, 2 mM MgCl2), supplemented with phenylmethylsulfonyl fluoride to a final concentration of 1 mM and a protease inhibitors cocktail (Sigma). Cells were lysed by two cycles of freeze-thaw in dry ice-ethanol and then passaged through a 27.5-gauge needle 10 times. Nuclei were removed by centrifugation at 250×g for 10 min, and the postnuclear supernatant was subjected to ultracentrifugation at 100,000×g for 30 min to obtain the membrane preparation. All steps were done at 4° C. […] Immunoprecipitates were analyzed by western blotting. […]

| Compound | effect on viability [1] | antiviral effect on HIV replication (HIV-1 NL4-3) | binding of core to AP2M1 (co-immunoprecipitation) (core-AP2M1 binding) | EC50 (HIV-1 NL4-3) [nM] |
| --- | --- | --- | --- | --- |
| CO[C@@H]1[C@H](N(C)C(=O)c2ccccc2)C[C@H]2O[C@]1(C)n1c3ccccc3c3c4c(c5c6ccccc6n2c5c31)C(=O)NC4 [PKC-412] | no effect on viability | significant dose response antiviral effect | – | – |
| COC[C@@H]([C@H](O)[C@H](O)C(=O)NCC[C@H](C)c1nc(/C=C/C[C@@H]2O[C@]3(C[C@@H](O)[C@@H]2C)O[C@H]([C@H](C[C@H](O)[C@H](C)[C@H](O)[C@H](C)/C=C(C)/C(C)=C/C=C/C(C)=C\C#N)OC)[C@H](OP(=O)(O)O)C3(C)C)co1)N(C)C [calyculin A] | – | – | significantly augmented | – |
| C#Cc1cccc(Nc2ncnc3cc(OCCOC)c(OCCOC)cc23)c1 [erlotinib] | no effect on viability | significant dose response antiviral effect | – | 1400 ± 300 |
| CCN(CC)CCNC(=O)c1c(C)[nH]c(/C=C2\C(=O)Nc3ccc(F)cc32)c1C [sunitinib] | no effect on viability | – | – | 800 ± 400 |
